Measurements published in patent publication US6969711B2, “Cyclic diamine compounds and medicine containing the same” (Kowa Company, Ltd., priority 1997, dated 2005).
Converted amounts (≈) assume the structure as drawn.

Tests used:
[1] = Disintegration test (solubility in liquid No. 1 of the Japanese Pharmacopoeia); type: physicochemical; conditions: simulated gastric fluid, thermodynamic from solid; liquid No. 1 for disintegration test (Japanese Pharmacopoeia), pH 1.2, shaken two hours, room temperature, 0.45 μm filtrate
Description: Compounds of the present invention and the compounds mentioned in the previously-filed Japanese Patent Applications Hei-09/88660 (hereinafter, referred to as “A”) and Hei-09/90146 (hereinafter, referred to as “B”) as controls were suspended in a liquid No. 1 for disintegration test regulated by the Japanese Pharmacopoeia, shaken for two hours, allowed to stand at room temperature for one hour and filtered through a membrane filter of 0.45 μm. Absorbance of a mixture of this filtrate with methanol in the same amounts was measured and, from the previously-determined ε1% 1cm values, solubility was calculated.

solubility at 2 h [1] [µg/mL]	melting point	SMILES
0.05 (≈ 0.000118 mM)	–	CC(C)c1cccc(C(C)C)c1NC(=O)CCCCCSc1nc2ccccc2o1 [Control 6, 6-(Benzoxazol-2-ylthio)-N-(2,6-diisopropylphenyl)hexanamide, reference compound]
170 to 180 (≈ 0.363 to 0.385 mM)	–	CC(C)c1cccc(C(C)C)c1NC(=O)CCCCCSc1nc2cc(N(C)C)ccc2o1 [Control 8, 6-[5-(N,N-Dimethylamino)-benzoxazol-2-ylthio]-N-(2,6-diisopropylphenyl)hexanamide, reference compound]
17000 (≈ 33.7 mM)	140 to 141 °C	CSc1cc(C)nc(SC)c1NC(=O)CN1CCN(CCSc2nc3ccccc3o2)CC1 [Example 24, 2-[4-[2-(benzoxazol-2-ylthio)ethyl]piperazin-1-yl]-N-(2,4-bis(methylthio)-6-methyl-3-pyridyl)acetamide]
360 to 400 (≈ 0.747 to 0.83 mM)	–	CC(C)c1cccc(C(C)C)c1NC(=O)CCCCCSc1nc2cc(CN(C)C)ccc2o1 [Control 7, 6-[5-(N,N-Dimethylaminomethyl)-benzoxazol-2-ylthio]-N-(2,6-diisopropylphenyl)hexanamide, reference compound]
7400 (≈ 14.5 mM)	109 to 111 °C	CC(C)c1cccc(C(C)C)c1NC(=O)CN1CCCN(CCCSc2nc3ccccc3o2)CC1 [Example 13, 2-[4-[3-(benzoxazol-2-ylthio)propyl]-homopiperazin-1-yl]-N-(2,6-diisopropylphenyl)acetamide]
14000 (≈ 29.1 mM)	–	CC(C)c1cccc(C(C)C)c1NC(=O)CN1CCN(CCSc2nc3ccccc3o2)CC1 [Example 1, 2-[4-[2-(benzoxazol-2-ylthio)ethyl]-piperazin-1-yl]-N-(2,6-diisopropylphenyl)acetamide]
–	160 to 163 °C	CC(C)c1cc(C(C)C)c(NC(=O)CN2CCN(CCSc3nc4ccccc4o3)CC2)c(C(C)C)c1 [Example 48, 2-[4-[2-(benzoxazol-2-ylthio)ethyl]piperazin-1-yl]-N-(2,4,6-triisopropylphenyl)acetamide]
–	126 to 129 °C (dec.)	COc1cc2oc(SCCN3CCN(CC(=O)Nc4c(C(C)C)cccc4C(C)C)CC3)nc2c(OC)c1OC [Example 98, 2-[4-[2-(4,5,6-trimethoxybenzoxazol-2-ylthio)ethyl]piperazin-1-yl]-N-(2,6-diisopropylphenyl)acetamide]
–	165 to 166 °C	COc1cc(C(C)C)c(NC(=O)CN2CCN(CCSc3nc4cccc([N+](=O)[O-])c4o3)CC2)c(C(C)C)c1 [Example 105, 2-[4-[2-(7-nitrobenzoxazol-2-ylthio)ethyl]-piperazin-1-yl]-N-(2,6-diisopropyl-4-methoxyphenyl)acetamide]
–	133 to 134 °C	Cc1ccc(C(C)C)c2oc(SCCN3CCN(CC(=O)Nc4c(C(C)C)cccc4C(C)C)CC3)nc12 [Example 122, 2-[4-[2-(7-isopropyl-4-methylbenzoxazol-2-ylthio)ethyl]piperazin-1-yl]-N-(2,6-diisopropylphenyl)acetamide]
–	134 to 137 °C	CCCCCCCN(CCN1CCN(CCSc2nc3ccccc3[nH]2)CC1)C(=O)Nc1c(SCC)cc(C)nc1SCC.Cl.Cl
–	83 to 85 °C	COC(=O)c1cccc2nc(SCCCN3CCCN(CC(=O)Nc4c(C(C)C)cccc4C(C)C)CC3)oc12 [Example 14, 2-[4-[3-(7-methoxycarbonylbenzoxazol-2-ylthio)propyl]homopiperazin-1-yl]-N-(2,6-diisopropylphenyl)acetamide]
–	175 to 176 °C	CC(C)c1cccc(C(C)C)c1NC(=O)NCCN1CCN(CCSc2nc3ncccc3o2)CC1 [Example 83, N-[2-[4-[2-(oxazolo[4,5-b]pyridine-2-ylthio)ethyl]piperazin-1-yl]ethyl]-N′-(2,6-diisopropylphenyl)urea]
–	181 to 183 °C	CC(C)c1cccc(C(C)C)c1NC(=O)CN1CCN(CCSc2nc3cccc(-c4cc[nH]n4)c3o2)CC1 [Example 103, 2-[4-[2-[7-(pyrazol-3-yl)benzoxazol-2-ylthio]ethyl]piperazin-1-yl]-N-(2,6-diisopropylphenyl)acetamide]
–	99 to 100 °C	CCOCCOc1ccc(C(C)C)c(NC(=O)CN2CCN(CCCSc3nc4ccccc4o3)CC2)c1C(C)C [Example 71, 2-[4-[3-(benzoxazol-2-ylthio)propyl]piperazin-1-yl]-N-[2,6-diisopropyl-3-(2-ethoxyethyloxy)phenyl]acetamide]
–	119 to 120 °C	CC(C)c1cccc(C(C)C)c1NC(=O)CN1CCN(CCSc2nc3cccc([S+](C)[O-])c3o2)CC1 (stereo not drawn) [Example 121, 2-[4-[2-(7-methanesulfinylbenzoxazol-2-ylthio)ethyl]piperazin-1-yl]-N-(2,6-diisopropylphenyl)acetamide]

solubility at 2 h [1] [µg/mL]	melting point	SMILES
–	76 to 79 °C	COC(=O)c1cccc2nc(SCCCN3CCN(CC(=O)Nc4c(SC)cc(C)nc4SC)CC3)oc12 [Example 30, N-[2,4-bis(methylthio)-6-methyl-3pyridyl)-2-[4-[3-(7-methoxycarbonylbenzoxazol-2-ylthio)propyl]piperazin-1-yl]acetamide]
–	93 to 95 °C	CC(C)c1cccc(C(C)C)c1NC(=O)CCN1CCN(CCCSc2nc3ccccc3o2)CC1 [Example 23, 3-[4-[3-(benzoxazol-2-ylthio)propyl]piperazin-1-yl]-N-(2,6-diisopropylphenyl)propanamide]
–	129 to 131 °C	CC(=O)Oc1ccc(C(C)C)c(NC(=O)CN2CCN(CCSc3nc4ccccc4o3)CC2)c1C(C)C [Example 63, 2-[4-[2-(benzoxazol-2-ylthio)ethyl]piperazin-1-yl]-N-(2,6-diisopropyl-3-acetyloxyphenyl)acetamide]
–	224 to 227 °C	CSc1cc(C)nc(SC)c1NC(=O)CCN1CCN(CCCSc2nc3ncccc3o2)CC1.Cl.Cl
–	135 to 137 °C (dec.)	CC(C)c1cccc(C(C)C)c1NC(=O)CN1CCN(CCSc2nc3cccc(C(F)(F)F)c3o2)CC1 [Example 85, 2-[4-[2-(7-trifluoromethylbenzoxazol-2-ylthio)ethyl]piperazin-1-yl]-N-(2,6-diisopropylphenyl)acetamide]
–	186 to 189 °C	CSc1ncccc1NC(=O)CN1CCN(CCSc2nc3ccccc3o2)CC1.Cl.Cl
–	122 to 123 °C	COc1cc(C(C)C)c(NC(=O)CN2CCN(CCSc3nc4cccc(C(F)(F)F)c4o3)CC2)c(C(C)C)c1 [Example 86, 2-[4-[2-(7-trifluoromethylbenzoxazol-2-ylthio)ethyl]piperazin-1-yl]-N-(2,6-diisopropyl-4-methoxyphenyl)acetamide]
–	118 to 120 °C	CCSc1cc(C)nc(SCC)c1NC(=O)CN1CCN(CCSc2nc3ccc(COC)c(COC)c3o2)CC1 [Example 101, 2-[4-[2-(6,7-bis(methoxymethyl)benzoxazol-2-ylthio)ethyl]piperazin-1-yl]-N-(2,4-bis(ethylthio)-6-methyl-3-pyridyl)acetamide]
–	110 to 112 °C	CSc1cc(C)nc(SC)c1NC(=O)CCN1CCN(CCSc2nc3ccccc3o2)CC1 [Example 27, 3-[4-[2-(benzoxazol-2-ylthio)ethyl]piperazin-1-yl]-N-[2,4-bis(methylthio)-6-methyl-3pyridyl]propanamide]
–	96 to 97 °C	COCc1ccc2nc(SCCN3CCN(CC(=O)Nc4c(C(C)C)cccc4C(C)C)CC3)oc2c1COC [Example 100, 2-[4-[2-(6,7-bis(methoxymethyl)benzoxazol-2-ylthio]ethyl]piperazin-1-yl]-N-(2,6-diisopropylphenyl)acetamide]
–	92 to 95 °C	CCOCCOc1cc(C(C)C)c(NC(=O)CN2CCN(CCSc3nc4ccccc4o3)CC2)c(C(C)C)c1 [Example 78, 2-[4-[2-(benzoxazol-2-ylthio)ethyl]piperazin-1-yl]-N-[2,6-diisopropyl-4-(2-ethoxyethyl)oxyphenyl)acetamide]
–	143 to 145 °C	CC(C)c1ccc([N+](=O)[O-])c(C(C)C)c1NC(=O)CN1CCN(CCSc2nc3ccccc3o2)CC1 [Example 58, 2-[4-[2-(benzoxazol-2-ylthio)ethyl]piperazin-1-yl]-N-(2,6-diisopropyl-3-nitrophenyl)acetamide]
–	118 to 120 °C	CCOC(=O)COc1cc(C(C)C)c(NC(=O)CN2CCN(CCSc3nc4ccccc4o3)CC2)c(C(C)C)c1 [Example 77, 2-[4-[2-(benzoxazol-2-ylthio)ethyl]piperazin-1-yl]-N-[2,6-diisopropyl-4-ethoxycarbonylmethyloxyphenyl)acetamide]
–	82 to 84 °C	CC(C)c1ccc(O)c(C(C)C)c1NC(=O)CN1CCN(CCSc2nc3cccc(C(F)(F)F)c3o2)CC1 [Example 130, 2-[4-[2-(7-trifluoromethylbenzoxazol-2-ylthio)ethyl]piperazin-1-yl]-N-(2,6-diisopropyl-3-hydroxyphenyl)acetamide]
–	136 to 139 °C	CSc1cc(C)nc(SC)c1NC(=O)CN1CCN(CCSc2nc3ccccc3s2)CC1 [Example 31, 2-[4-[2-(benzothiazol-2-ylthio)ethyl]piperazin-1-yl]-N-(2,4-bis(methylthio)-6-methyl-3-pyridyl)acetamide]
–	126 to 127 °C	COc1ccc(C(C)C)c(NC(=O)CN2CCN(CCCSc3nc4c(C)c(Cl)cc(C(C)C)c4o3)CC2)c1C(C)C [Example 110, 2-[4-[3-(5-chloro-7-isopropyl-4-methylbenzoxazol-2-ylthio)propyl]piperazin-1-yl]-N-(2,6-diisopropyl-3-methoxyphenyl)acetamide]

SMILES	solubility at 2 h [1] [µg/mL]	melting point
CC(C)c1cccc(C(C)C)c1NC(=O)CN1CCN(CCSc2nc3ncccc3o2)CC1 [Example 6, 2-[4-[2-(oxazolo[4,5-b]pyridine-2-ylthio)ethyl]-piperazin-1-yl]-N-(2,6-diisopropylphenyl)acetamide]	35000 (≈ 72.7 mM)	153 to 154 °C
